Here are results for 16 molecules from patent US9238631B2, “Radiolabeled amino acids for diagnostic imaging” (PIRAMAL IMAGING SA, priority 2011, dated 2016).

For one data set, the target named is T1, xCT (SLC7A11) (Homo sapiens, UniProt Q9UPY5).
T1 construct: NCI-H460 tumor cells were co-incubated with the F-18 labeled tracer and several cold derivatives; endogenous in cells; host or cells: NCI-H460 tumor cells
T1 sequence (Q9UPY5 1-501): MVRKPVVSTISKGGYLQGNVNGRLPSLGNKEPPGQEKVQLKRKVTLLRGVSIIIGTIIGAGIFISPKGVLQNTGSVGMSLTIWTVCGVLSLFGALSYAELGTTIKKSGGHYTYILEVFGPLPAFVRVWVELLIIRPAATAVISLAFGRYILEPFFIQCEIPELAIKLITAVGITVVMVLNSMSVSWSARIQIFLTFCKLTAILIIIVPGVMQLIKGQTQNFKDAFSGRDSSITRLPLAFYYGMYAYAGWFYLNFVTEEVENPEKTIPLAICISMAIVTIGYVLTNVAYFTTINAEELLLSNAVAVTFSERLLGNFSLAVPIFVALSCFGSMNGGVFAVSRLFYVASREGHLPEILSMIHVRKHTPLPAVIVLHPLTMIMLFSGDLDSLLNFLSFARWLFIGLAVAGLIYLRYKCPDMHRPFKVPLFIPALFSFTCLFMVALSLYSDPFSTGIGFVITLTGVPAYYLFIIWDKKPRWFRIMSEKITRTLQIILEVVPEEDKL
T1 sequence (P08195 1-529 partner): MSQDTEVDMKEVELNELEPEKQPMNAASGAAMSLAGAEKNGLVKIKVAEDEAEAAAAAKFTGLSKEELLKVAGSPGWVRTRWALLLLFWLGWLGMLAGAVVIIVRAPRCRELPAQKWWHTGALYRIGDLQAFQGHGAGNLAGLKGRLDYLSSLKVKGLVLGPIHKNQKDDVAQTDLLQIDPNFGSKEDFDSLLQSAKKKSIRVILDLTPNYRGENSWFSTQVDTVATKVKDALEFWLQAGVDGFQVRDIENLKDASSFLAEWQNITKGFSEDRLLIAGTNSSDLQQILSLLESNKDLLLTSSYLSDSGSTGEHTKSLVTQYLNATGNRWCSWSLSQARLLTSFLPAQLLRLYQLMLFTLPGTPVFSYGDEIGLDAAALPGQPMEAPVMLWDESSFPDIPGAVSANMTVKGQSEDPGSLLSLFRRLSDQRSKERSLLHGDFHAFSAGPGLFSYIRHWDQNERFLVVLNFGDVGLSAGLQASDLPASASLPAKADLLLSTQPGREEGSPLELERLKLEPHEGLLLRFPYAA
The data set is described as follows: Competition profile indicating uptake via xCT (SLC7A11). Type of data set: cell-based. The settings on record: NCI-H460 cells; for reduction of [^18F]-12 uptake by excess competitor: competitor 1 mM. On the procedure: For determination of the responsible uptake mechanism, NCI-H460 tumor cells were co-incubated with the F-18 labeled tracer and several cold derivatives. These derivatives were used at a concentration of 1 mM, which is a large excess compared to the tracer. L-Glutamic acid, L-cystine, Carboxyphenylglycine (CPG) were used as competitors. In addition, also D-Glutamic acid, as well as L-aspartic acid and D-aspartic acid were used in this competition experiments. […] The same experiments were performed using [^18F]-1, [^18F]-4, [^18F]-9, [^18F]-8, [^18F]-25 and [^18F]-22.

Data set [1] has as its system NCI-H460 (human NSCLC) cells. As to the kind of experiment: In vitro cell-uptake study: blocking of radiolabeled glutamate derivative uptake. The settings on record: compound 1 mM, 30 minutes, mean ± SD, without compound = 100%. Format: cell-based. On the procedure:
The ability of compounds from the present invention to compete with radiolabeled glutamate derivatives for uptake into tumor cells was examined. NCI-H460 (human NSCLC) cells, grown adherently in 48 well plates were used for these competition-experiments. Approximately 100.000 cells were co-incubated in PBS-buffer containing 0.1% BSA with a radiolabeled Glutamic acid derivative and several compounds, which were used at a concentration of 1 mM for 30 minutes. After this time, the cell bound radioactivity was determined.

Data set [2] concerns NCI-H460 (human NSCLC) cells. As to the kind of experiment: Cell uptake studies: 30 min uptake in H460 cells. Type of data set: cell-based. As to conditions: 0.25 MBq tracer, PBS 0.1% BSA. As to the method: For determination of the biological activity, the F18 labeled derivatives were used as tracers in cell uptake experiments. NCI-H460 (human NSCLC) cells, grown adherently in 48 well plates were used for these uptake-experiments. Approximately 100.000 cells were incubated with 0.25 MBq of the tracers for 30 min in PBS-buffer containing 0.1% BSA. After this time, the cell-bound radioactivity was determined using a γ-counter.

Data set [3] concerns NCI-H460 tumor. As to the kind of experiment: In vivo biodistribution in NCI-H460 tumor bearing mice. As to conditions: for T/Blood / T/Muscle: 1 h post injection. As to the method:
(§1) To test the pharmacokinetic properties of compounds from the present invention, all F18-labeled compounds were examined by biodistribution studies in NCI-H460 tumor bearing mice. Female NMRI (nu/nu) mice were inoculated with 5×10^6 NCI-H460 tumor cells 8 to 10 days before the biodistribution studies. 185 kBq of activity of the fluorinated compound was injected and at least n=3 mice were used for every time point. After injection of the F18-labeled compound, mice were sacrificed at defined time-points. All organs were removed and radioactivity was determined using a γ-counter.
To compare the tumor uptake and retention of radioactivity of different ^18F-labeled derivatives from the present invention, biodistribution studies were performed in NCI-H460 tumor bearing NMRI (nu/nu) mice as described above.
To compare the kidney clearance of several ^18F-labeled derivatives from the present invention, biodistribution studies were performed in NCI-H460 tumor bearing female NMRI (nu/nu) mice as described above. […] After 2 h p.i., less than 1% ID/g can be found in the kidneys.
For comparison of pancreas uptake and clearance of several ^18F-labeled derivatives from the present invention, biodistribution studies were performed in NCI-H460 tumor bearing NMRI (nu/nu) mice as described above. […] After 2 h p.i., less than 2% ID/g can be found in the pancreas.
as §1, with “and” for “for every time point. After injection of the F18-labeled compound, mice were”, “time-points raning from 15 min pi up to 2 h p.i.” for “time-points.”, “γ-counter. […] High tumor uptake values of >3% ID/g were obtained with various compounds from the present invention.” for “γ-counter.”

For data set [4], the system named is NCI-H460 tumor. As to the kind of experiment: PET imaging in NCI-H460 tumor bearing nude-rats. Type of data set: in vivo. The settings on record: PET ROI analysis, 1 h p.i. On the procedure:
c) Beside PET-imaging studies in mice, also the imaging properties of [^18F]-12 in rats were examined. NCI-H460 tumor cells were inoculated into the right flank of nude-rats (RH-Foxn1 nu/nu) 8 to 10 days before the PET study. PET images were acquired at 60 min after injection of approximately 10 MBq for 10 minutes. The H460 tumor was nicely visible (0.9% ID/g as determined by ROI analysis). Beside some minor uptake into the liver and kidneys due to the excretion of the compound, no uptake into other non-target tissues was observed.
To test the imaging properties, compounds from the present invention were evaluated in PET imaging studies using tumor bearing rats. NCI-H460 tumor cells were inoculated into the right flank of nude-rats (RH-Foxn1 nu/nu) 8 to 10 days before the PET study. PET images were acquired at 60 min after injection of approximately 10 MBq for 10 minutes. After the imaging study, region-of-interest (ROI) analysis was performed and activity in tumor, liver and kidney was determined. […] High tumor uptake values of >1% […] in this rat model were obtained with various compounds from the present invention. A favorable clearance profile of all compounds enables excellent tumor detection in PET imaging studies in tumor bearing rats.

`N[C@H](CCC(=O)O)C(=O)O` [D-Glutamic acid, reference compound]: the “reduction of [^18F]-12 uptake by excess competitor” value at xCT (SLC7A11) is given as “less effective competitors”.
Same read-out and setting: as for `N[C@H](CC(=O)O)C(=O)O` [D-aspartic acid, reference compound], the entry is “less effective competitors”.
On to `N[C@@H](C[C@H](Cc1ccc(OCCF)cc1)C(=O)O)C(=O)O` [Example 1, (4S)-4-[4-(2-Fluoroethoxy)benzyl]-L-glutamic acid], for which the “Uptake of radiolabeled glutamate-derivative (% of control)” value (“Uptake … (% of control)” for short) in data set [1] was 5.0 ± 0.2 % of control.
Regarding `N[C@@H](C[C@H](Cc1ccc(OCCCF)cc1)C(=O)O)C(=O)O` [Example 4, (4S)-4-[4-(3-Fluoropropoxy)benzyl]-L-glutamic acid], the “Uptake … (% of control)” value in data set [1] is 3.0 ± 0.1 % of control.
On the same count and under the same terms, as for `N[C@@H](CC(Cc1ccc(CCCF)cc1)C(=O)O)C(=O)O` (stereo partly drawn) [Example 9, 4-[4-(3-Fluoropropyl)benzyl]-L-glutamic acid], the figure is 14.2 ± 1.0 % of control; as for `N[C@@H](CCC(Cc1ccc(OCCF)cc1)C(=O)O)C(=O)O` (stereo partly drawn) [Example 12, (2S)-2-Amino-5-[4-(2-Fluoroethoxy)benzyl]-hexanedioic acid], 3.9 ± 0.3 % of control; as for `N[C@@H](CC(CCCc1ccc(CCCF)cc1)C(=O)O)C(=O)O` (stereo partly drawn) [Example 19, 4-{3-[4-(3-Fluoropropyl)phenyl]propyl}-L-glutamic acid], 6.6 ± 1.6 % of control.
As for `N[C@H](C[C@@H](Cc1ccc(OCCF)cc1)C(=O)O)C(=O)O` [Example 23, (4R)-4-[4-(2-Fluoroethoxy)benzyl]-D-glutamic acid], the “Uptake … (% of control)” value in data set [1] is on record as 43.8 ± 3.2 % of control.
Consider `N[C@H](C[C@@H](Cc1ccc(OCCCF)cc1)C(=O)O)C(=O)O` [Example 24, (4R)-4-[4-(3-Fluoropropoxy)benzyl]-D-glutamic acid], for which, in data set [1], the “Uptake … (% of control)” value was 36.5 ± 3.8 % of control.
Still for that read-out and setting: the same measure for `N[C@@H](C[C@H](CCCc1ccc(OCCF)cc1)C(=O)O)C(=O)O` [Example 25, (4S)-4-{3-[4-(2-Fluoroethoxy)phenyl]propyl}-L-glutamic acid]: 20.1 ± 0.4 % of control.
Regarding `N[C@@H](CC(=O)O)C(=O)O` [L-aspartic, L-aspartic acid, reference compound], the “reduction of [^18F]-12 uptake by excess competitor” value on xCT (SLC7A11) is “less effective competitors”.
Turning to `N[C@@H](CSSC[C@H](N)C(=O)O)C(=O)O` [L-cystine, reference compound], the “Uptake … (% of control)” value in data set [1] was 10.7 ± 0.7 % of control.
The same measure, in the same setting: the same measure for `N[C@@H](CCC(=O)O)C(=O)O` [L-glutamic acid, L-glutamate, reference compound]: 26.1 ± 0.3 % of control.
As to `N[C@@H](CC(Cc1ccc(NCCC[18F])cc1)C(=O)O)C(=O)O` (stereo partly drawn) [[^18F]-8, 4-{4-[(3-[^18F]Fluoropropyl)amino]benzyl}-L-glutamic acid], on xCT (SLC7A11) (co-incubation with 1 mM cold competitors), the “competition profile / uptake mechanism of the tracer” value is given as “identical competition profile”. Further, the “30 min uptake into H460 cells [%/100.000 cells]” value in data set [2] was 15.3 ± 0.1 %/100.000 cells. For the same molecule, in the data set with NCI-H460 tumor [3], the “Kidney (% ID/g at 1 h p.i.)” value turned out to be 2.8 ± 0.6 % ID/g, the “Liver (% ID/g at 1 h p.i.)” value stood at 1.3 ± 0.3 % ID/g, the “Pancreas (% ID/g at 1 h p.i.)” value is 2.2 ± 0.4 % ID/g and the “Tumor (% ID/g at 1 h p.i.)” value worked out at 4.6 ± 0.9 % ID/g. Also, in the data set on NCI-H460 tumor [3], the “Urine (% ID at 1 h p.i.)” value stood at 92.7 ± 3.8 % ID, the T/Blood turned out to be 26.8 and the T/Muscle worked out at 46.3.
`N[C@H](CCC(Cc1ccc(OCC[18F])cc1)C(=O)O)C(=O)O` (stereo partly drawn) [[^18F]-16, (2R)-2-Amino-5-[4-(2-[^18F]fluoroethoxy)benzyl]hexanedioic acid]: in the data set on NCI-H460 tumor [4], the “Kidney (% ID/g at 1 h p.i.)” value is 1.7 % ID/g, the “Liver (% ID/g at 1 h p.i.)” value is given as 2.3 % ID/g, the “Tumor (Max % ID/g at 1 h p.i.)” value came to 2.1 % ID/g and the “Tumor (Mean % ID/g at 1 h p.i.)” value is recorded as 0.8 % ID/g. Besides, in the data set on NCI-H460 tumor [3], the “Kidney (% ID/g at 1 h p.i.)” value is 3.4 ± 0.3 % ID/g, the “Liver (% ID/g at 1 h p.i.)” value worked out at 3.3 ± 0.1 % ID/g, the “Pancreas (% ID/g at 1 h p.i.)” value was determined as 1.4 ± 0.1 % ID/g and the “Tumor (% ID/g at 1 h p.i.)” value came to 3.6 ± 0.6 % ID/g. In the data set on NCI-H460 tumor [3], the “Urine (% ID at 1 h p.i.)” value is on record as 74.5 ± 6.8 % ID, the T/Blood stood at 14.1 and the T/Muscle was determined as 54.2.
With `N[C@@H](C[C@H](Cc1ccc(OC[18F])cc1)C(=O)O)C(=O)O` [[^18F]-48, (4S)-4-{4-[(^18F)fluoromethoxy]benzyl}-L-glutamic acid], in the data set with NCI-H460 tumor [4], the “Kidney (% ID/g at 1 h p.i.)” value turned out to be 0.9 % ID/g, the “Liver (% ID/g at 1 h p.i.)” value stood at 0.2 % ID/g, the “Tumor (Max % ID/g at 1 h p.i.)” value was 1.6 % ID/g and the “Tumor (Mean % ID/g at 1 h p.i.)” value was determined as 0.8 % ID/g. In the data set with NCI-H460 tumor [3], the “Kidney (% ID/g at 1 h p.i.)” value was found to be 1.8 ± 0.4 % ID/g, the “Liver (% ID/g at 1 h p.i.)” value turned out to be 0.2 ± 0.08 % ID/g, the “Pancreas (% ID/g at 1 h p.i.)” value is reported as 0.8 ± 0.1 % ID/g and the “Tumor (% ID/g at 1 h p.i.)” value was 2.8 ± 1.4 % ID/g. For the same molecule, in the data set with NCI-H460 tumor [3], the “Urine (% ID at 1 h p.i.)” value worked out at 79 ± 7.8 % ID, the T/Blood was 23.3 and the T/Muscle was 30.4.
